Experimental data: patent US20240336611A1 (Insilico Medicine IP Limited, priority 2021, published 2024)
pIC50: −log10 of the molar value.

These molecules were tested against T1, TNIK kinase [amino acid sequence (1-367), Invitrogen] (Homo sapiens, UniProt Q9UKE5) (assay: TNIK kinase inhibition assay (Z-lyte FRET-peptide)). Conditions: 0.625 nM TNIK kinase, 2 μM Ser/Thr 7 peptide, 64 μM ATP, one hour at room temperature.
T1 construct: purchased Invitrogen
T1 sequence (Q9UKE5 1-367): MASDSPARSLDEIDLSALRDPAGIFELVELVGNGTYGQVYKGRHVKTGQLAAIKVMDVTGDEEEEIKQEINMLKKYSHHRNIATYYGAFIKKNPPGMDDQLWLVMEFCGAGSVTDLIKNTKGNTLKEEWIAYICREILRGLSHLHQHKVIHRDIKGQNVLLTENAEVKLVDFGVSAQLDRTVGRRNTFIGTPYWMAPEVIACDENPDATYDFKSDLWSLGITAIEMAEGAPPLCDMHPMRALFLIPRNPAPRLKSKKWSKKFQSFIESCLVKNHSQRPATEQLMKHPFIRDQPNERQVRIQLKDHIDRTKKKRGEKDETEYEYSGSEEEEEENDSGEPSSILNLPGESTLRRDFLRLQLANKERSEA
Assay type: biochemical
Protocol: Z-lyte assay kit was purchased from Invitrogen. A site-specific protease recognizes and cleaves non-phosphorylated FRET-peptides. Phosphorylation of FRET-peptides suppresses cleavage by protease and will maintain FRET from donor to acceptor.
5 μl of Development Reagent A solution was then added to cleave non-phosphorylated peptide with a dilution 1:65000 in Development Buffer B. The assay plate was incubated at room temperature for another one hour and then read in the Envision plate reader (PerkinElmer).
“2-(4-(4-fluorophenyl)-1-isopropyl-1H-imidazol-5-yl)-N-(5-((1R,5S)-8-methyl-8-azabicyclo[3.2.1]octan-3-yl)pyridin-2-yl)oxazole-4-carboxamide [Compound 62]” was tested, and the pIC50 was 6.82 to 7.92. With `CC(C)n1cnc(-c2ccc(F)cc2)c1-c1cnc(C(=O)Nc2ccc(N3CCN(C)CC3)cc2)s1` [Compound 1, 5-(4-(4-fluorophenyl)-1-isopropyl-1H-imidazol-5-yl)-N-(4-(4-methylpiperazin-1-yl)phenyl)thiazole-2-carboxamide] the pIC50 was < 6.82. In the case of `CC(C)n1cnc(-c2ccc(F)cc2)c1-c1ncc(C(=O)Nc2ccc(N3CCN(C)CC3)cc2)s1` [Compound 3, 2-(4-(4-fluorophenyl)-1-isopropyl-1H-imidazol-5-yl)-N-(4-(4-methylpiperazin-1-yl)phenyl)thiazole-5-carboxamide], the pIC50 was < 6.82. Molecule `CC(C)n1cnc(-c2ccc(F)cc2)c1-c1csc(C(=O)Nc2ccc(N3CCN(C)CC3)cc2)n1` [Compound 4, 4-(4-(4-fluorophenyl)-1-isopropyl-1H-imidazol-5-yl)-N-(4-(4-methylpiperazin-1-yl)phenyl)thiazole-2-carboxamide] has a pIC50 of 7.92 to 9.00. Work on `CN1CCN(c2ccc(NC(=O)c3c[nH]c(-c4c(-c5ccc(F)cc5)ncn4C4CC4)n3)cc2)CC1` [Compound 15, 3′-cyclopropyl-5′-(4-fluorophenyl)-N-(4-(4-methylpiperazin-1-yl)phenyl)-1H,3′H-[2,4′-biimidazole]-4-carboxamide] yielded a pIC50 of 6.82 to 7.92. `CC(C)n1cnc(-c2ccc(F)cc2)c1-c1nc(C(=O)Nc2ccc(N3CCN(C)CC3)c(F)c2)c[nH]1` [Compound 16, N-(3-fluoro-4-(4-methylpiperazin-1-yl)phenyl)-5′-(4-fluorophenyl)-3′-isopropyl-1H,3′H-[2,4′-biimidazole]-4-carboxamide] was tested, and the pIC50 was 7.92 to 9.00. For `CC(C)n1cnc(-c2ccc(F)cc2)c1-c1nc(C(=O)Nc2ccc(N3CCN(C)CC3)c(F)c2F)c[nH]1` [Compound 17, N-(2,3-difluoro-4-(4-methylpiperazin-1-yl)phenyl)-5′-(4-fluorophenyl)-3′-isopropyl-1H,3′H-[2,4′-biimidazole]-4-carboxamide], the pIC50 was 7.92 to 9.00. `Cc1cc(NC(=O)c2cnc(-c3c(-c4ccc(F)cc4)ncn3C(C)C)[nH]2)ccc1N1CCN(C)CC1` [Compound 18, 5′-(4-fluorophenyl)-3′-isopropyl-N-(3-methyl-4-(4-methylpiperazin-1-yl)phenyl)-1H,3′H-[2,4′-biimidazole]-5-carboxamide] gave a pIC50 of 6.82 to 7.92. `CC(C)n1cnc(-c2ccc(F)cc2)c1-c1ncc(C(=O)Nc2ccc(N3CCC4(CC3)CN(C)C4)cc2)[nH]1` [Compound 19, 5′-(4-fluorophenyl)-3′-isopropyl-N-(4-(2-methyl-2,7-diazaspiro[3.5]nonan-7-yl)phenyl)-1H,3′H-[2,4′-biimidazole]-5-carboxamide] was tested, and the pIC50 was 7.92 to 9.00. Molecule `CC(C)n1cnc(-c2ccc(F)cc2)c1-c1ncc(C(=O)Nc2ccc(N3CC4(CN(C)C4)C3)cc2)[nH]1` [Compound 20, 5′-(4-fluorophenyl)-3′-isopropyl-N-(4-(6-methyl-2,6-diazaspiro[3.3]heptan-2-yl)phenyl)-1H,3′H-[2,4′-biimidazole]-5-carboxamide] has a pIC50 of 7.92 to 9.00. `CC(C)n1cnc(-c2ccc(F)cc2)c1-c1nc(C(=O)Nc2ccc(N3CCN(C)CC3)nc2)c[nH]1` [Compound 22, 5′-(4-fluorophenyl)-3′-isopropyl-N-(6-(4-methylpiperazin-1-yl)pyridin-3-yl)-1H,3′H-[2,4′-biimidazole]-4-carboxamide] showed a pIC50 of 6.82 to 7.92. `CC(C)n1cnc(-c2ccc(F)cc2)c1-c1nc(C(=O)Nc2ccc(N3C[C@H]4CC[C@@H](C3)N4C)nc2)c[nH]1` [Compound 25, 5′-(4-fluorophenyl)-3′-isopropyl-N-(6-((1R,5S)-8-methyl-3,8-diazabicyclo[3.2.1]octan-3-yl)pyridin-3-yl)-1H,3′H-[2,4′-biimidazole]-4-carboxamide] was tested, and the pIC50 was 7.92 to 9.00.
